According to article PMC13311170, “Ganaxolone, an approved therapy for CDKL5-deficiency disorder, is an inhibitor of PTP1B” (The Journal of Biological Chemistry, 2026):

Target: T1, PTP1B (Homo sapiens, UniProt P18031)
T1 construct: gene PTPN1; WT PTP1B containing a His-tag
T1 sequence (P18031 1-435): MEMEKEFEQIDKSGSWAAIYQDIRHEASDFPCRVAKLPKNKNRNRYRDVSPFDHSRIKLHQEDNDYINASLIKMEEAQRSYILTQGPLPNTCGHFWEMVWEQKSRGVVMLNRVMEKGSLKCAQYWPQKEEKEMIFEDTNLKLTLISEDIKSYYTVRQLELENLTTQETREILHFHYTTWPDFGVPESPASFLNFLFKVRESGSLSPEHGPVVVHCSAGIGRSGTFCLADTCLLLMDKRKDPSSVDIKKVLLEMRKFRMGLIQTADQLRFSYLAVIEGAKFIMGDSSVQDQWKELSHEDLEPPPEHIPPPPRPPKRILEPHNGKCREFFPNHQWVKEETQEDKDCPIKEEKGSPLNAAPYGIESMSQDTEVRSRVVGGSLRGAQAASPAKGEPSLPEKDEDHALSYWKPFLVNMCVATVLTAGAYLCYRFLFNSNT
Experiment: DiFMUP fluorescence phosphatase assay with […] purified PTP1B
Assay type: biochemical

Compound: CC(=O)[C@H]1CC[C@H]2[C@@H]3CC[C@H]4C[C@](C)(O)CC[C@]4(C)[C@H]3CC[C@]12C [ganaxolone, 3α-Hydroxy-3β-methyl-5α-pregnan-20-one]
- IC50: 600 nM
